Article PMC11611271, “Rapid prediction of key residues for foldability by machine learning model enables the design of highly functional libraries with hyperstable constrained peptide scaffolds” (PLOS Computational Biology, 2024)
Where a SMILES comes first, the peptide text is derived from it. Bridges are numbered along the chain shown (N, C = ends).

Key:
HtrA1 = assay: phage spot ELISA on HtrA1; format: binding; details: Fig 9A; for ELISA s/n: Spot ELISA signal/noise; for ELISA signal: Spot ELISA
Description: To determine the performance of the libraries for ligand discovery we chose a panel of eight protein targets, which have no structural homology and a wide mass range (Fig 7C). We screened these eight targets with solution panning strategy and two additional plate panning for CD8α/β and CD28, thus ten panning campaigns in total. We consider clones showing spot phage ELISA signal > 0.3 and signal/noise ratio > 2 as positive hits. […] We also obtained the NGS data for these screening and the ranking of clones for their enrichment along the rounds of screening was analyzed and considered the top-ranking clones as potential hits. Based on their sequence diversity we selected 16 potential hits spanning five protein targets for peptide synthesis in their linear form. Seven of these are hits with positive phage ELISA signal and nine were selected based on NGS ranking without spot ELISA available. Subsequently, we conducted in vitro folding experiments on these peptides in various buffers.
(§1) The 5ji4 libraries were constructed following the Kunkel mutagenesis method and the solution panning protocol was followed as previously described. After four to five rounds of binding selection, while eluted pool was subjected to NGS analysis, individual phage clones were also picked and analyzed with phage spot ELISA. Positive clones were subjected to SANGER sequencing.
Among these five hits, A7, which is the SANGER hit, was picked for affinity maturation. Following the same strategy, one soft- and one hard-randomization library was designed targeting the 5JI4 variable regions 1 and 2, respectively. Two libraries were each panned as previously described. Both phage spot ELISA coupled with SANGER sequencing and NGS analysis were applied after affinity maturation.

CRD7 = assay: phage spot ELISA on CRD7; format: binding; details: for S/N: phage spot ELISA signal/noise; for S/N / ELISA: S3 Table sheet CRD7; for ELISA: phage spot ELISA signal
Description: To determine the performance of the libraries for ligand discovery we chose a panel of eight protein targets, which have no structural homology and a wide mass range (Fig 7C). We screened these eight targets with solution panning strategy and two additional plate panning for CD8α/β and CD28, thus ten panning campaigns in total. We consider clones showing spot phage ELISA signal > 0.3 and signal/noise ratio > 2 as positive hits. At least one binding hit was discovered for nine out of the ten panning campaigns, surpassing the success rate of the best DCP scaffolds reported previously. We also obtained the NGS data for these screening and the ranking of clones for their enrichment along the rounds of screening was analyzed and considered the top-ranking clones as potential hits. Based on their sequence diversity we selected 16 potential hits spanning five protein targets for peptide synthesis in their linear form. Seven of these are hits with positive phage ELISA signal and nine were selected based on NGS ranking without spot ELISA available. Subsequently, we conducted in vitro folding experiments on these peptides in various buffers. We observed a strong propensity for spontaneous folding regardless of the buffer condition. All HCP hits tested successfully folded into three-disulfide-containing product within two days in a universal buffer system (PBS, pH 7.4, 50% DMSO) without the need for a redox pair, as shown in Fig 8A. The binding of these folded peptides to their respective target proteins was confirmed using SPR (Table 4 and S1 Data) and binding kinetics are exemplified by the high-affinity peptide 5ji4-CRD7-2 (see Fig 8B). Among seven selected ELISA-positive hits, all of them were successfully synthesized and in vitro folded with three disulfide bonds and five were proven to be validated binders by SPR (Table 4). Nine peptides selected from the NGS ranking were synthesized and folded with the expected number of disulfide bonds and five of them bound to their target with affinities in the μM range as determined by SPR (Table 4). In general, binding affinities for these SPR-validated initial hits are weak, with Kd values in the micromolar range and fast on- and off-rates. There are two exceptions with binding affinities in the nanomolar range.
as §1

Row | Compound | ELISA s/n (HtrA1) | ELISA signal (HtrA1) | S/N (CRD7) | ELISA (CRD7) | other results
1 | CC[C@H](C)[C@@H]1NC(=O)[C@H]([C@@H](C)O)NC(=O)[C@@H]2CSSC[C@H](NC(=O)[C@H](CCC(=O)O)NC(=O)[C@H](C)NC(=O)[C@H](CO)NC(=O)[C@H](CO)NC(=O)[C@H]([C@@H](C)O)NC(=O)[C@H](CC(C)C)NC(=O)[C@H](Cc3ccccc3)NC(=O)[C@H](Cc3c[nH]cn3)NC(=O)[C@H](Cc3c[nH]c4ccccc34)NC(=O)CNC(=O)[C@@H]3CCCN3C(=O)[C@H](CC(C)C)NC1=O)C(=O)N[C@@H](C)C(=O)N[C@@H](CCCNC(=N)N)C(=O)N[C@@H](CC(C)C)C(=O)N[C@H]1CSSC[C@H](NC(=O)[C@H]([C@@H](C)O)NC(=O)[C@H](CCCNC(=N)N)NC(=O)[C@H](CC(C)C)NC(=O)CNC(=O)[C@H](CC(C)C)NC(=O)[C@H](CCCNC(=N)N)NC(=O)[C@H](CC(=O)O)NC1=O)C(=O)N[C@@H](CCCNC(=N)N)C(=O)N[C@@H](C(C)C)C(=O)N[C@@H](Cc1c[nH]cn1)C(=O)N[C@H](C(=O)NCC(=O)O)CSSC[C@H](NC(=O)[C@@H]1CCCN1)C(=O)N[C@@H](CCC(=O)O)C(=O)N2 [5ji4_A7.B9B2] (H-PCECTILPGWHFLTSSAECARLCDRLGLRTCRVHCG-OH; disulfide 2-35, 4-19, 23-31) | 7.0 | 3.67 |  |  | 
2 | CC[C@H](C)[C@@H]1NC(=O)[C@H]([C@@H](C)O)NC(=O)[C@@H]2CSSC[C@H](NC(=O)[C@H](CCC(=O)O)NC(=O)[C@H](C)NC(=O)[C@H](CO)NC(=O)[C@H](CO)NC(=O)[C@H]([C@@H](C)O)NC(=O)[C@H](CC(C)C)NC(=O)[C@H](Cc3ccccc3)NC(=O)[C@H](Cc3ccc(O)cc3)NC(=O)[C@H](Cc3c[nH]c4ccccc34)NC(=O)CNC(=O)[C@@H]3CCCN3C(=O)[C@H](CC(C)C)NC1=O)C(=O)N[C@@H](CCC(=O)O)C(=O)N[C@@H](CCCNC(=N)N)C(=O)N[C@@H](CC(C)C)C(=O)N[C@H]1CSSC[C@H](NC(=O)[C@H]([C@@H](C)O)NC(=O)[C@H](CCCNC(=N)N)NC(=O)[C@H](CC(C)C)NC(=O)CNC(=O)[C@H](CC(C)C)NC(=O)[C@H](CCCNC(=N)N)NC(=O)[C@H](CC(=O)O)NC1=O)C(=O)N[C@@H](CCCNC(=N)N)C(=O)N[C@@H](C(C)C)C(=O)N[C@@H](Cc1c[nH]cn1)C(=O)N[C@H](C(=O)NCC(=O)O)CSSC[C@H](NC(=O)[C@@H]1CCCN1)C(=O)N[C@@H](CCC(=O)O)C(=O)N2 [5ji4_A7.H5B2] (H-PCECTILPGWYFLTSSAECERLCDRLGLRTCRVHCG-OH; disulfide 2-35, 4-19, 23-31) | 7.6 | 3.59 |  |  | 
3 | CC[C@H](C)[C@@H]1NC(=O)[C@@H]2CCCN2C(=O)[C@@H]2CSSC[C@H](NC(=O)[C@H](CCC(=O)O)NC(=O)[C@H](CCC(=O)O)NC(=O)[C@H](CO)NC(=O)[C@H](CO)NC(=O)[C@H](CCCCN)NC(=O)[C@H](C(C)C)NC(=O)[C@@H]3CCCN3C(=O)[C@H](C(C)C)NC(=O)CNC(=O)[C@H](Cc3ccc(O)cc3)NC(=O)[C@@H]3CCCN3C(=O)[C@H](CCCNC(=N)N)NC1=O)C(=O)N[C@@H](CCC(=O)O)C(=O)N[C@@H](CCCNC(=N)N)C(=O)N[C@@H](CC(C)C)C(=O)N[C@H]1CSSC[C@H](NC(=O)[C@H](CC(N)=O)NC(=O)[C@H]([C@@H](C)O)NC(=O)[C@H](C(C)C)NC(=O)CNC(=O)[C@H](CC(C)C)NC(=O)[C@H](CCCCN)NC(=O)[C@H](CCCNC(=N)N)NC1=O)C(=O)N[C@@H](CCCNC(=N)N)C(=O)N[C@@H](C(C)C)C(=O)N[C@@H](Cc1c[nH]cn1)C(=O)N[C@H](C(=O)NCC(=O)O)CSSC[C@H](NC(=O)[C@@H]1CCCN1)C(=O)N[C@@H](CCC(=O)O)C(=O)N2 [5ji4-CRD7-2] (H-PCECPIRPYGVPVKSSEECERLCRKLGVTNCRVHCG-OH; disulfide 2-35, 4-19, 23-31) |  |  |  |  | ELISA signal (CRD7; phage spot ELISA of the clone, positive hit: signal > 0.3 and signal/noise > 2): 0.37; ELISA s/n (CRD7; phage spot ELISA signal/noise ratio): 4.60
4 | PCECRWMFYSTWELSSEECERLCRKLGVTNCRVHCG [CRD7 clone 4, phage clone, 5JI4 library, CRD7 panning] |  |  | 4 | 0.28 | 
5 | PCECPATVHWYFIGSSEECERLCRKLGVTNSRVHCD [CRD7 clone 1, phage clone, 5JI4 library, CRD7 panning] |  |  | 7.871 | 0.488 | 
